Key:
Experiment in all cases: relative viability (nuclei count vs DMSO), 5 days (fraction); higher = more cells survive
BI-D1870 + Foretinib = compound: CC(C)CCN1c2nc(Nc3cc(F)c(O)c(F)c3)ncc2N(C)C(=O)C1C [BI-D1870] + COc1cc2c(Oc3ccc(NC(=O)C4(C(=O)Nc5ccc(F)cc5)CC4)cc3F)ccnc2cc1OCCCN1CCOCC1 [Foretinib] (partner 0.25 µM)
Method in brief: (§1)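 For relative viability, nuclei counts in treated wells were divided by those in vehicle wells. Lung cancer cell lines had been pin-tool dosed in 1536-well plates the day after seeding and cultured for 5 days, then fixed and stained in one step (final 0.05% Triton X-100, 1% formaldehyde, 1 ug/ml Hoechst) and imaged at 4×. Doses were one drug alone or a fixed anchor-drug dose plus five library-drug doses (not always all listed) in √10 steps, and values are duplicate-plate medians.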

BI-D1870 + Crizotinib = compound: CC(C)CCN1c2nc(Nc3cc(F)c(O)c(F)c3)ncc2N(C)C(=O)C1C [BI-D1870] + C[C@@H](Oc1cc(-c2cnn(C3CCNCC3)c2)cnc1N)c1c(Cl)ccc(F)c1Cl [Crizotinib] (partner 1 µM)
Method in brief: as §1

BI-D1870 + Linsitinib = compound: CC(C)CCN1c2nc(Nc3cc(F)c(O)c(F)c3)ncc2N(C)C(=O)C1C [BI-D1870] + C[C@]1(O)C[C@@H](c2nc(-c3ccc4ccc(-c5ccccc5)nc4c3)c3c(N)nccn32)C1 [Linsitinib] (partner 1 µM)
Method in brief: as §1

Zebularine + Pictilisib = compound: O=c1ncccn1[C@@H]1O[C@H](CO)[C@@H](O)[C@H]1O [Zebularine] + CS(=O)(=O)N1CCN(Cc2cc3nc(-c4cccc5[nH]ncc45)nc(N4CCOCC4)c3s2)CC1 [Pictilisib] (partner 1 µM)
Method in brief: as §1

Cell Line | relative viability (BI-D1870 + Foretinib; first compound 0.04 µM) | relative viability (BI-D1870 + Foretinib; first compound 0.1265 µM) | relative viability (BI-D1870 + Foretinib; first compound 0.4 µM) | relative viability (BI-D1870 + Foretinib; first compound 1.265 µM) | relative viability (BI-D1870 + Foretinib; first compound 4 µM) | relative viability (BI-D1870 + Crizotinib; first compound 0.04 µM) | relative viability (BI-D1870 + Crizotinib; first compound 0.1265 µM) | relative viability (BI-D1870 + Crizotinib; first compound 0.4 µM) | relative viability (BI-D1870 + Crizotinib; first compound 1.265 µM) | relative viability (BI-D1870 + Crizotinib; first compound 4 µM) | relative viability (BI-D1870 + Linsitinib; first compound 0.04 µM) | relative viability (BI-D1870 + Linsitinib; first compound 0.1265 µM) | relative viability (BI-D1870 + Linsitinib; first compound 0.4 µM) | relative viability (BI-D1870 + Linsitinib; first compound 1.265 µM) | relative viability (BI-D1870 + Linsitinib; first compound 4 µM) | relative viability (Zebularine + Pictilisib; first compound 1 µM) | relative viability (Zebularine + Pictilisib; first compound 3.162 µM) | relative viability (Zebularine + Pictilisib; first compound 10 µM) | relative viability (Zebularine + Pictilisib; first compound 31.62 µM) | relative viability (Zebularine + Pictilisib; first compound 100 µM)
SK-MES-1 | 0.871 | 0.77 | 0.706 | 0.868 | 0.769 | 1.09 | 0.88 | 0.864 | 0.78 | 0.569 | 1.06 | 1.05 | 1.02 | 0.902 | 0.705 | 0.375 | 0.399 | 0.294 | 0.346 | 0.203
SW 1573 | 0.958 | 0.783 | 0.853 | 0.937 | 0.881 | 1.01 | 0.808 | 0.876 | 0.905 | 0.597 | 0.768 | 0.756 | 0.89 | 0.771 | 0.63 | 0.576 | 0.505 | – | 0.471 | 0.377
NCI-H661 | 1.02 | 0.989 | 1.04 | 1.03 | 0.969 | 1.24 | 0.963 | 0.973 | 1.05 | 0.902 | 0.515 | 0.485 | 0.489 | 0.535 | 0.593 | 0.413 | 0.427 | 0.328 | 0.354 | 0.395
PC-3 [JPC-3] | 0.999 | 1.01 | 1.02 | 1.06 | 0.961 | 1.01 | 0.898 | 1.05 | 1.05 | 0.97 | 0.959 | 0.913 | 0.956 | 1.02 | 0.897 | 0.745 | 0.612 | 0.538 | 0.738 | 0.478
Calu-6 | 0.929 | 0.789 | 0.87 | 0.774 | 0.561 | 0.883 | 0.741 | 0.886 | 0.597 | 0.629 | 1.04 | 0.896 | 0.889 | 0.884 | 0.744 | 0.995 | 0.898 | 0.467 | 0.859 | 0.218
LC-2-ad | 1.01 | 0.932 | 0.946 | 0.975 | 0.626 | 0.51 | 0.454 | 0.394 | 0.544 | 0.434 | 0.874 | 0.821 | 0.778 | 0.722 | 0.522 | 0.509 | 0.421 | 0.399 | 0.258 | 0.158
CAL-12T | 1.29 | 0.831 | 1.11 | 1.23 | 0.889 | 0.598 | 0.53 | 0.662 | 0.506 | 0.283 | 0.935 | 0.559 | 0.749 | 0.79 | 0.704 | 0.509 | 0.398 | – | 0.482 | 0.364
RERF-LC-KJ | 0.885 | 0.842 | 0.878 | 0.846 | 0.909 | 0.892 | 0.853 | 0.847 | 0.857 | 0.792 | 0.919 | 0.882 | 0.842 | 0.814 | 0.812 | 0.662 | 0.485 | 0.348 | 0.565 | 0.474
BEN | 0.654 | 0.609 | 0.76 | 1.16 | 0.77 | 1.12 | 0.722 | 1.01 | 0.99 | 0.822 | 0.956 | 0.859 | 0.914 | 1.01 | 0.961 | 0.56 | 0.504 | 0.291 | 0.385 | 0.3
EMC-BAC-2 | 1.07 | 0.875 | 0.918 | 1.09 | 1.02 | 0.847 | 0.739 | 0.726 | 0.853 | 0.835 | 0.864 | 0.748 | 0.792 | 0.802 | 0.799 | 0.536 | 0.562 | 0.493 | 0.606 | 0.546
LU99A | 0.913 | 0.683 | 0.696 | 0.788 | 0.796 | 0.692 | 0.539 | 0.552 | 0.547 | 0.508 | 0.617 | 0.435 | 0.519 | 0.48 | 0.496 | 0.329 | 0.305 | 0.324 | 0.283 | 0.198
ABC-1 | 1.16 | 0.984 | 1.1 | 1.42 | 0.913 | 1.19 | 0.49 | 1.12 | 0.988 | 0.591 | 0.857 | 0.835 | 0.718 | 0.946 | 0.782 | 0.62 | 0.326 | 0.633 | 0.564 | 0.439
NCI-H1299 | 1.13 | 1.07 | 1.08 | 1.08 | 0.952 | 0.971 | 0.902 | 0.965 | 0.885 | 0.814 | 1.04 | 0.909 | 0.995 | 1.02 | 0.933 | 0.75 | 0.761 | 0.543 | 0.739 | 0.264
EBC-1 | 0.103 | 0.119 | 0.105 | 0.136 | 0.0927 | 0.16 | 0.182 | 0.209 | 0.188 | 0.134 | 1.17 | 0.616 | 0.75 | 0.582 | 0.682 | 0.338 | 0.348 | 0.311 | 0.387 | 0.303
NCI-H2347 | 0.977 | 0.993 | 0.903 | 0.723 | 0.863 | 0.812 | 0.674 | 0.7 | 0.662 | 0.577 | 1.07 | 0.965 | 0.962 | 1.03 | 0.899 | 0.8 | 0.529 | 0.439 | 0.558 | 0.462
NCI-H1993 | 0.777 | 0.659 | 0.715 | 0.784 | 0.842 | 0.891 | 0.842 | 0.801 | 0.916 | 0.73 | 0.812 | 0.739 | 0.726 | 0.703 | 0.797 | 0.962 | 0.8 | – | 0.89 | 0.847

Source: the supplement of paper PMC10307832
